Experimental data: publication PMC10906247, “From Functional Fatty Acids to Potent and Selective Natural-Product-Inspired Mimetics via Conformational Profiling” (ACS Central Science, 2024)
Several values for one entry are separate records, joined by “and”; a condition that tells them apart may be missing. Identical values can stand only once. Like-named read-outs stand apart in the source and are kept apart here.

Key:
[1] = target: T1, TLX ligand binding domain (Homo sapiens, UniProt Q9Y466); test: TLX ligand sensing assay (AlphaScreen, RIP140 NR box peptide recruitment); assay type: biochemical
T1 construct: purchased NovAliX SAS, Strasbourg, France

GPR40 (FFAR1) = GPR40 (FFAR1) (Homo sapiens, UniProt O14842); test: PathHunter β-arrestin assay (Eurofins Discovery), GPR40; assay type: cell-based; conditions: for EC50 / GPR40 max. efficacy: dose-response; for EC50: β-arrestin assay, read-out: GPR40 EC50 measured; for GPR40 max. efficacy: oleic acid = 100; for GPR40 potency relative to oleic acid: EC50 ratio vs control oleic acid
Procedure: (§1) With these compounds in hand, attention was directed at evaluating their properties as ligands to GPR40, GPR120,[24] and TLX. Initial profiling experiments were conducted targeting the GPCR targets at a single concentration (15 μM) in a commercially available β-arrestin assay.
(§2) Functional assays at GPR40 and GPR120 were conducted by Eurofins Discovery services using their PathHunter® b-Arrestin assay that monitors the activation of a GPCR in a homogenous, non-imaging assay format using a technology developed by DiscoverX called Enzyme Fragment Complementation (EFC) with b-galactosidase (b-Gal) as the functional reporter. b-Arrestin GPCR cell lines built on the principles of EFC are engineered to co-express the ProLinkTM (PK) tagged GPCR and the Enzyme Acceptor (EA) tagged b-Arrestin. Activation of the GPCR-PK induces b-Arrestin-EA recruitment, forcing complementation of the two b-galactosidase enzyme fragments (EA and PK). The resulting functional enzyme hydrolyzes substrate to generate chemiluminescent […]
(§3) Additional information can be found at: www.eurofinsdiscovery.com/solution/b-arrestin Below are dose-response curves generated from Eurofins Discovery services for activity of ligands depicted in Figure 6B at GPR40 (FFAR1) and GPR120. […]

GPR120 = target: T2, GPR120 (Homo sapiens, UniProt Q5NUL3); test: PathHunter β-arrestin assay (Eurofins Discovery), GPR120; assay type: cell-based; conditions: for EC50: β-arrestin assay, read-out: GPR120 EC50 measured; for GPR120 max. efficacy: oleic acid = 100
T2 sequence (Q5NUL3 1-361): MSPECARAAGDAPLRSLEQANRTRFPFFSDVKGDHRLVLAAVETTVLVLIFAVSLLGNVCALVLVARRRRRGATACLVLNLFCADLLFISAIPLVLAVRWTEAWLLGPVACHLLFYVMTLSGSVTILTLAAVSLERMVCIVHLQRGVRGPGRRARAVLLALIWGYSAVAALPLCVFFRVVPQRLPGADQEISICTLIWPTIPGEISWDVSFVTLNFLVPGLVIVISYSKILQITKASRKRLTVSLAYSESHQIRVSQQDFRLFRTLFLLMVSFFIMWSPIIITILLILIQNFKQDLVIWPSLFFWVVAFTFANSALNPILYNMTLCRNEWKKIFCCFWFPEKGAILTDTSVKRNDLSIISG
Procedure: as §1, §2, §3

[2] = Metabolic stability / intrinsic clearance in cryopreserved human hepatocytes
Procedure: To gain insight into potential metabolic issues, a preliminary assessment of 1-E and 3-C in a metabolic stability assay utilizing human hepatocytes was conducted.
7.1. ADME-Tox: In Vitro Metabolism
Intrinsic clearance (cr yopreserved hepatocytes, human)
Note: Unit of Clint is µ L/min/mg for microsomes, S9 and UGT assa ys; µL/min/pmol for CYP assays; µ L/min/Million cells for hepatocyte assays […]
8.1. Experimental Conditions
8.1.1. ADME-Tox: In Vitro Metabolism
8.2. Analysis and expression of results
8.2.1. ADME-Tox: In Vitro Metabolism
Intrinsic Clearance (microsomes, S9, cryopreserved hepatocytes, reco mbinant CYP, recombinant UGT) Metabolic stability, expressed as percent of the parent compound remaining , was calculated by comparing the peak area of the compound at the time point relative to that at time -0. The ha lf-life (T1/2) was estimated from the slope of the initial linear range of the logarithmic curve of compound remaining (%) vs. time, assu ming the first -order kinetics. The apparent intrinsic cleara nce (CLint, in µL/min/pmol, µL/min/mg or µL/min/Mcell ) was calculated according to the following formula: […]
T1/2*(mg protein/µL or million cells/µL or pmol CYP iso zyme/µL)

[3] = ALPHA normalized, supplement, read-out: TLX EC50 (dose-response curves)
[4] = maximal efficacy measured at 100 μM

Chain of GPR40 (FFAR1) (O14842 whole entry): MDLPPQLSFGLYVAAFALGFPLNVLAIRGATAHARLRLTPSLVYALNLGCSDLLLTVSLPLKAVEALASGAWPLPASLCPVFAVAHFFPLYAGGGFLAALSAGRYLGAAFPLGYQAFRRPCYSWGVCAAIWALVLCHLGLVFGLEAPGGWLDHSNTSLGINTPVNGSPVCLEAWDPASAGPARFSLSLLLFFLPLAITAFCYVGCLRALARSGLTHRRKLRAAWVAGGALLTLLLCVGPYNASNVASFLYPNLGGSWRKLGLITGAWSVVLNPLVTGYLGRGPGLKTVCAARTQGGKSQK
T1 sequence (Q9Y466 155-383 limits assumed): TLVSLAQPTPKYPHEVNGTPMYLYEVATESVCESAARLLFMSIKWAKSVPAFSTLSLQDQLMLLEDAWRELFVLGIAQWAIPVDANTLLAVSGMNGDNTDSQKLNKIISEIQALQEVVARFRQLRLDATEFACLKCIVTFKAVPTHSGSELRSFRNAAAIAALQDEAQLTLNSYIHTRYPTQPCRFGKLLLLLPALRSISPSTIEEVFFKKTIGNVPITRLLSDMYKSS

EC50 [1, 3]	EC50 (GPR40 (FFAR1))	GPR40 max. efficacy (GPR40 (FFAR1))	EC50 (GPR120; dose-response)	Structure (SMILES)	further results
2180 nM				CCCCCCCCCC/C=C(/C)C/C(C)=C/[C@H](C)CC(=O)O [1-A]	
2360 nM				CCCCCCCCCC/C=C(/C)C/C(C)=C/[C@@H](C)CC(=O)O [1-B]	
3120 nM	7800 nM	109%	> 51000 nM	CCCCCCCCC[C@@H](C)/C=C(/C)C/C(C)=C/[C@H](C)CC(=O)O [1-C]	GPR120 max. efficacy (GPR120; [4]): 29%
3170 nM				CCCCCCCCC[C@@H](C)/C=C(/C)C/C(C)=C/[C@@H](C)CC(=O)O [1-D]	
1680 nM	2600 nM	75%	> 47000 nM	CCCCCCCCC[C@H](C)/C=C(/C)C/C(C)=C/[C@H](C)CC(=O)O [1-E]	GPR40 potency relative to oleic acid (GPR40 (FFAR1)): 14 times; GPR120 max. efficacy (GPR120; [4]): 32%; Half-life, single replicates (1st, 2nd, 3rd) ([2]; human hepatocytes, 1.0E-06 M, listed as GCM/LEM 1-E): 3.445 h and 2.168 h and 4.453 h; hepatocyte CLint at 1 µM ([2]; human, cryopreserved human hepatocytes): 5.4 µL/min/1e6 cells; half-life at 1 µM ([2]; human, cryopreserved human hepatocytes, Half-life (mean), human hepatocytes, 1.0E-06 M): 3.35 h; % Compound Remaining, mean ([2]; incubation 30 minutes, 1.0E-06 M): 96 % remaining; % Compound Remaining, single replicates (1st, 2nd, 3rd) ([2]; incubation 30 minutes, 1.0E-06 M, listed as GCM/LEM 1-E): 99.4 % remaining and 103.0 % remaining and 86.6 % remaining; % Compound Remaining, mean ([2]; incubation 60 minutes, 1.0E-06 M): 98 % remaining; % Compound Remaining, single replicates (1st, 2nd, 3rd) ([2]; incubation 60 minutes, 1.0E-06 M, listed as GCM/LEM 1-E): 83.9 % remaining and 103.8 % remaining and 106.9 % remaining; % Compound Remaining, mean ([2]; incubation 90 minutes, 1.0E-06 M): 85 % remaining; % Compound Remaining, single replicates (1st, 2nd, 3rd) ([2]; incubation 90 minutes, 1.0E-06 M, listed as GCM/LEM 1-E): 79.1 % remaining and 80.4 % remaining and 96.1 % remaining; % Compound Remaining, mean ([2]; incubation 120 minutes, 1.0E-06 M): 61 % remaining; % Compound Remaining, single replicates (1st, 2nd, 3rd) ([2]; incubation 120 minutes, 1.0E-06 M, listed as GCM/LEM 1-E): 67.8 % remaining and 50.9 % remaining and 64.3 % remaining
1870 nM	7200 nM	123%	> 42000 nM	CCCCCCCCC[C@H](C)/C=C(/C)C/C(C)=C/[C@@H](C)CC(=O)O [1-F]	GPR120 max. efficacy (GPR120; [4]): 31%
2510 nM				CCCCCCCC/C=C(/C)C/C(C)=C/[C@H](C)CCCC(=O)O [2-A]	
3080 nM				CCCCCCCC/C=C(/C)C/C(C)=C/[C@@H](C)CCCC(=O)O [2-B]	
1510 nM	6200 nM and ~5000 nM	95%	2600 nM	CCCCCCC[C@@H](C)/C=C(/C)C/C(C)=C/[C@H](C)CCCC(=O)O [2-C]	GPR40 potency relative to oleic acid (GPR40 (FFAR1)): ~7 times; GPR120 max. efficacy (GPR120; dose-response): 31%
1320 nM	5500 nM and ~5000 nM	87%	≥ 7500 nM and 1000 to 7000 nM	CCCCCCC[C@@H](C)/C=C(/C)C/C(C)=C/[C@@H](C)CCCC(=O)O [2-D]	GPR40 potency relative to oleic acid (GPR40 (FFAR1)): ~7 times; GPR120 max. efficacy (GPR120; [4]): 44%
1310 nM	5000 nM and ~5000 nM	68%	1100 nM	CCCCCCC[C@H](C)/C=C(/C)C/C(C)=C/[C@H](C)CCCC(=O)O [2-E]	GPR40 potency relative to oleic acid (GPR40 (FFAR1)): ~7 times; selectivity for GPR120 (GPR120; GPR120 over GPR40): 5 fold; GPR120 max. efficacy (GPR120; dose-response): 35%
1560 nM				CCCCCCC[C@H](C)/C=C(/C)C/C(C)=C/[C@@H](C)CCCC(=O)O [2-F]	
1560 nM				CCCCCC/C=C(/C)C/C(C)=C/[C@H](C)CCCCCC(=O)O [3-A]	
934 nM				CCCCCC/C=C(/C)C/C(C)=C/[C@@H](C)CCCCCC(=O)O [3-B]	EC50 ([1]; coactivator recruitment, read-out: TLX EC50): 900 nM; TLX max. efficacy ([1]; oleic acid = 100): 79%
